Assay [1] deals with 48 h mature MRSA ATCC 33591 biofilms. Kind of assay: Cell viability of 48 h mature biofilm embedded cells. It is filed as cell-based, Staphylococcus aureus. Conditions: 24 h treatment at 20 × MIC, mean ± S.D., two experiments, untreated 9.31 ± 0.11. The procedure:
For enumeration of cells after 48 h incubation, the medium was aspirated and the biofilms were washed with PBS once. Then 200 μL PBS was added to each well of the chamber slide and the chambers were thoroughly scraped with a pipette tip. The bacterial suspension obtained was plated on BHI agar after dilution in PBS as described above. The resulting CFU/mL from two different days were counted and plotted as mean ± S.D.

Assay [2] relates to MRSA ATCC 33591 biofilm. Put plainly: Biofilm formation inhibition, alamar blue (AB) assay. Conditions: 24 h biofilm formation inhibition, 2.5 μg/mL. It is filed as cell-based, Staphylococcus aureus. The protocol:
(§1) For the experiment, a protocol as described previously was used with slight modifications. Briefly, desired concentrations of the test agents in PBS were added to the wells of a 96-well plate (100 μL). Thereafter, overnight grown stationary phase MRSA ATCC 33591 culture (~4 × 10^5 CFU/mL) in TSB medium (supplemented with 0.25% glucose and 0.5% NaCl) was added to the 96-well plates (100 μL). The plates were incubated at 37 °C without shaking for 24 h. After 24 h, the used medium was discarded and the biofilms formed were washed with PBS once. Subsequently, CV and AB assays were performed to quantify biomass and viability respectively, as described below:
For AB assay, after washing the treated biofilms, a solution of 10% AB reagent in TSB medium (200 μL) was added to the wells of the plates. The plates were sonicated briefly in a bath sonicator (5 min) and kept at room temperature for 30 min in dark. After 30 min, fluorescence was measured by exciting the samples at 550 nm and collecting emission at 590 nm.
The experiments were repeated on two different days and on each day 6 wells were used for a single treatment. Mean ± S.E. for both CV assay and AB assay is presented here. Corresponding to CV and AB assay the viability of cells upon treatment was also evaluated. […] The agar plates were incubated at 37 °C for 16–24 h and CFUs were counted. […]

For assay [3], the system named is exponential phase MRSA ATCC 33591. Kind of assay: Bacterial killing kinetics, exponential phase cells in MHB medium. It counts as cell-based, Staphylococcus aureus. To be noted: 24 h. The procedure: The kinetics of bacterial killing was determined against MRSA ATCC 33591 strain using drop plate method as described previously with slight modifications[51],[67],[70],[71]. The experiment was performed against exponential phase MRSA in normal medium and stationary phase MRSA in nutrient-depleted medium. For the preparation of nutrient-depleted medium, the primary MRSA ATCC 33591 culture in MHB medium was allowed to grow for 18 h at 37 °C and the cells were removed by centrifugation. The cell pellet was used for stationary phase culture and the spent medium supernatant was used as a nutrient-depleted medium. For obtaining exponential phase cells, MRSA was grown overnight in MHB and 100 μL suspension was used to inoculate 10 mL fresh MHB medium. The cells were incubated at 37 °C for 4–6 h to reach exponential phase.
For the experiments, both exponential and stationary phase cells were re-suspended separately in normal or nutrient-depleted mediums to OD600 = 0.5 (~10^8 CFU/mL). A 25 µL aliquot of this suspension was added to 475 μL of respective medium with or without test peptidomimetics/antibiotics in an eppendorf tube. […] The agar plates were incubated at 37 °C for 16–18 h and the colonies were counted (dilutions having colonies in the range of 10–100 were counted). […]

Assay [4] has as its system Vancomycin-resistant E. faecium (ATCC 700221). Put plainly: microbe, parasite or virus in culture. It is filed as cell-based. Conditions: Enterococcus faecium, ATCC700221, MHB, 2–5 × 10^5 CFU/mL, 16–18 h, 37 °C, read-out: Minimum inhibitory concentration, MIC. The protocol: (§2) The antibacterial activity was evaluated as MIC using slight modifications to a serial broth micro dilution method as reported previously[66],[67]. Briefly, to each treatment well of the 96-well plate (Corning Incorporated, USA) 10 μL of peptidomimetic/antibiotic was added and subsequently diluted serial 2-fold in 0.2% BSA (in 0.01% acetic acid). Then to each well of the first 11 columns 100 μL of mid-log phase bacterial suspension in MHB medium was added to get 2–5 × 10^5 CFU/mL. Cultures without test peptidomimetics/antibiotics were used as growth control. Uninoculated MHB medium was used as negative control. The microtitre plates were incubated overnight with agitation (180 rpm) at 37 °C. After 16–18 h incubation, absorbance was read at 600 nm using an ELISA plate reader (Molecular Devices, Sunnyvale, CA, USA). The experiments were carried out in duplicate on at least three different days.

A further assay has as its system E. faecalis (ATCC 29212). Kind of assay: microbe, parasite or virus in culture. To be noted: Enterococcus faecalis, ATCC29212, MHB, 2–5 × 10^5 CFU/mL, 16–18 h, 37 °C, read-out: Minimum inhibitory concentration, MIC. It is filed as cell-based. The protocol: as §2
The test system of another assay is MRSA ATCC 33591. Put plainly: Cell viability corresponding to membrane depolarization experiment. Conditions: dye-loaded cells in HEPES-glucose buffer, 4 × MIC, 2 min incubation. It counts as cell-based, Staphylococcus aureus.
Assay [5] deals with E. faecium (E-447), clinical isolate of vancomycin-resistant E. faecium. Kind of assay: organism not typed. It counts as cell-based, Enterococcus faecium. Conditions: read-out: Minimum inhibitory concentration, MIC. A digest of the protocol:
(§3)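 Minimum inhibitory concentrations are determined by a modified broth microdilution in MHB, starting from 2–5 × 10^5 CFU/mL mid-log inoculum. Incubation runs 16–18 h at 37 °C with agitation, and growth is scored by 600 nm absorbance.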

The test system of assay [6] is E. faecium (E-7846), clinical isolate of vancomycin-resistant E. faecium. Put plainly: organism not typed. It counts as cell-based, Enterococcus faecium. To be noted: read-out: Minimum inhibitory concentration, MIC. In a few lines:
as §3

In assay [7] the test system is MRSA ATCC 33591 biofilm. Kind of assay: Biofilm formation inhibition, viable count assay. It is filed as cell-based, Staphylococcus aureus. Conditions: 24 h biofilm formation inhibition, 2.5 μg/mL. The protocol: as §1
The experiments were repeated on two different days and on each day 6 wells were used for a single treatment. Mean ± S.E. for both CV assay and AB assay is presented here. Corresponding to CV and AB assay the viability of cells upon treatment was also evaluated. Towards this 200 μL PBS was added to washed and treated wells of the 96-well plate and the contents were scraped thoroughly. The resulting bacterial suspension was sonicated briefly, diluted in PBS and plated on BHI agar plates. The agar plates were incubated at 37 °C for 16–24 h and CFUs were counted. Mean ± S.E. data from two independent experiments performed on two different days is shown here.

≈ marks a conversion by molar mass, not a printed value.

`CN[C@H](CC(C)C)C(=O)N[C@H]1C(=O)N[C@@H](CC(N)=O)C(=O)N[C@H]2C(=O)N[C@H]3C(=O)N[C@H](C(=O)N[C@H](C(=O)O)c4cc(O)cc(O)c4-c4cc3ccc4O)[C@H](O)c3ccc(c(Cl)c3)Oc3cc2cc(c3O[C@@H]2O[C@H](CO)[C@@H](O)[C@H](O)[C@H]2O[C@H]2C[C@](C)(N)[C@H](O)[C@H](C)O2)Oc2ccc(cc2Cl)[C@H]1O` [VAN, vancomycin]: the “number of surviving cells” value in assay [1] is given as 9.08 ± 0.11 log CFU/mL. For the same molecule, in the assay on MRSA ATCC 33591 biofilm [2], the “% viable cells compared to untreated control (AB assay)” value is under 1%. For the same molecule, the “log reduction in CFU/mL” value in assay [3] (4 × MIC) and in assay [3] (10 × MIC) was ~ 2.3 log throughout. Besides, the MIC is over 45.4 µg/mL in assay [4], 1.4 µg/mL (≈ 0.966 µM) in the assay on E. faecalis (ATCC 29212), over 45.4 µg/mL in [5] and over 45.4 µg/mL in assay [6]. In addition, the “log reduction in viability relative to untreated control” value with MRSA ATCC 33591 is listed as 0.6 log. Also, the “log reduction in viability compared to 24 h growth control” value in the assay with MRSA ATCC 33591 biofilm [7] was over 3 log. The same molecule had a remaining viable count in the assay on MRSA ATCC 33591 biofilm [7] (mean ± S.E., two experiments, untreated 7.59 ± 0.08) of 1.44 ± 1.44 log CFU/mL.

The record behind these values is PMC5773577, “Novel Miniature Membrane Active Lipopeptidomimetics against Planktonic and Biofilm Embedded Methicillin-Resistant Staphylococcus aureus” (Scientific Reports, 2018).
